Data as given in PMC8584173, “The Cytotoxic Effect of Copper (II) Complexes with Halogenated 1,3-Disubstituted Arylthioureas on Cancer and Bacterial Cells” (International Journal of Molecular Sciences, 2021).

How the values were obtained:
SW620 cells = assay: LDH release assay, SW620; format: cell-based, human; details: 72 h
Procedure: The presence of lactate dehydrogenase (LDH) in culture medium indicates a disturbance of the integrity of the cellular membrane. The LDH activity was performed after 72 h incubation of cells (1 × 10^4 cells per well) in 96-well plates with selected compounds according to manufacturer’s protocol (Roche Diagnostics, Germany), as was described by Chrzanowska et al.. Compound mediated cytotoxicity was determined using equation: ((A test sample−A low control)/ (A high control−A low control)) × 100% (A-absorbance), where “low control” means cells in medium with 2% FBS without tested compounds, and “high control” means cells incubated in medium with 2% FBS and 1% Triton X-100 (100% LDH release). The cytotoxicity was expressed as percentage of LDH release as compared with the maximum release of LDH from Triton-X-100-treated cells.

SW480 cells = assay: Annexin V-FITC/PI flow cytometry, SW480; format: cell-based, human; details: for apoptosis of SW480 cells: at 4 μM (supplement text)
Procedure: The cells were cultured and harvested under the conditions described in the cell culture section. […] The effect of these compounds on the process of early and late apoptosis and necrosis was determined, as described previously, by dual staining with annexin V-FITC and propidium iodide according to manufacturer’s protocol (Becton Dickinson). The cells that were annexin V-FITC positive and PI-negative were identified as early apoptotic and annexin V-FITC and PI-positive as late apoptotic or necrotic.

[1] = test system: Glutathione S-transferase A1 (GSTA1_HUMAN); assay: LC–MS proteome analysis, GSTA1; format: cell-based, Homo sapiens; details: for Protein Intensity, % (GSTA1): IC50 concentration, % of control; for decrease in the amount of GSTA1: SW620, IC50 concentration
Procedure: (§1) Enzymes involved in oxidoreductive potential were analyzed in the cell lysates obtained after treatment cells with selected conjugates for 24 h. Cells were washed with phosphate-buffered saline (PBS) and harvested, then centrifuged at 1000× g for 10 min. Then, lysis buffer (containing protease inhibitor, 1% RIPA Lysis and Extraction Buffer (ThermoFisher)) and cold PBS were added, and samples were sonicated three times in ice bath. Next, the cell lysates were centrifuged at 14,000× g at 4 °C for 15 min, and then supernatants were stored at […] before use. Protein concentration was measured by the Bradford method.
(§2) Normalized protein concentrations (5 µg) from cell lysate were precipitated by ice cold (–20 °C) acetonitrile (ACN, Merck, in ratio 1:4). Then, samples were centrifuged (–9 °C, 30 min., 18,000× g), the supernatant was discarded and ACN excess was evaporated using a vacuum centrifuge (5 min., room temp.). Protein pellet was dissolved in 40 mM ammonium bicarbonate. An amount of 500 mM dithiothreitol (DTT, with final concentration 20 mM) and 1 M iodoacetamide (IAA, with final concentration 40 mM) were used for reduction and alkylation processes. After 16 h of incubation in 37 °C with Trypsin Gold (Promega), digested protein samples were diluted with 0.1% formic acid (ThermoFisher) and centrifuged (+2 °C, 30 min, 18,000× g).
(§3) LC–MS analysis was carried out with the use of nanoUHPLC (nanoElute, Bruker) coupled by CaptiveSpray (Bruker) to ESI-Q-TOF mass spectrometer (Compact, Bruker). Two-column separation method was used, i.e., pre-column (300 µm × 5 mm, C18 PepMap 100, 5 µm, 100Å, Thermo Scientific) and Aurora separation column with CSI fitting (75 µm × 250 mm, C18 1.6 µm) in gradient 2% B to 35% B in 90 min with the 300 nL/min flow rate. Mobile phases (A) 0.1% formic acid in water and (B) 0.1% formic acid in ACN were used.
(§4) Sample ionizations were performed at a gas flow of 3.0 L/min, temperature of 150 °C and voltage of the capillary at 1600 V. The quadrupole energy was fixed to 5.0 eV and collision chamber energy 7.0 eV, with an ion transfer time of 90 µs. The ions were analyzed in the positive polarity mode in the range 150–2200 m/z, with the acquisition frequency of the 1 Hz spectrum, as well as with the autoMS/MS system.
(§5) The collected spectra were analyzed and calibrated using DataAnalysis software (Bruker) and then identified in ProteinScape (Bruker) by the MASCOT server. Protein identification was conducted using the online SwissProt and NCBIprot databases, and their references and biological significance were identified using Reactome.org, String.org and KEGG.

[2] = test system: Glutathione S-transferase omega-1 (GSTO1_HUMAN); assay: LC–MS proteome analysis, GSTO1; format: cell-based, Homo sapiens; details: IC50 concentration, % of control
Procedure: as §1, §2, §3, §4, §5

[3] = test system: Glutathione S-transferase P (GSTP1_HUMAN); assay: LC–MS proteome analysis, GSTP1; format: cell-based, Homo sapiens; details: IC50 concentration, % of control
Procedure: as §1, §2, §3, §4, §5

[4] = test system: Peroxiredoxin-4 (PRDX4_HUMAN); assay: LC–MS proteome analysis, PRDX4; format: cell-based, Homo sapiens; details: for Protein Intensity, % (PRDX4): IC50 concentration, % of control
Procedure: as §1, §2, §3, §4, §5

[5] = test system: Thioredoxin-dependent peroxide reductase, mitochondrial (PRDX3_HUMAN); assay: LC–MS proteome analysis, PRDX3; format: cell-based, Homo sapiens; details: IC50 concentration, % of control
Procedure: as §1, §2, §3, §4, §5

Candida species = assay: MIC, Candida species; format: cell-based; details: studied Candida species
Procedure: The antimicrobial activity of the compounds was tested on Gram-positive bacteria (Staphylococcus aureus NCTC 4163, Staphylococcus aureus ATCC 25923, Staphylococcus aureus ATCC 6538, Staphylococcus aureus ATCC 29213, Staphylococcus epidermidis ATCC 12228, Staphylococcus epidermidis ATCC 35984), Gram-negative rods (Escherichia coli ATCC 10538, Escherichia coli ATCC 25922, Pseudomonas aeruginosa ATCC 15442, Pseudomonas aeruginosa ATCC 27863) and yeasts (Candida albicans ATCC 10231, Candida albicans ATCC 90028, Candida parapsilosis ATCC 22019). Hospital methicillin-resistant strains of Staphylococcus aureus and Staphylococcus epidermidis were obtained from the collection of the Department of Pharmaceutical Microbiology, Medical University of Warsaw, Poland.
Antifungal activities were assessed using Mueller–Hinton agar + 2% glucose and 0.5 µg/mL methylene blue dye medium. Sterile filter paper discs (9 mm diameter, Whatman Number 3 chromatography paper) were dripped with tested compound solutions (in dimethylsulfoxide, DMSO) to load 400 μg of a given compound per disc. Dry discs were placed on the surface of appropriate agar medium. The results (diameter of the growth inhibition zone) were read after 18 h of incubation at 35 °C. Minimal inhibitory concentration (MIC) was tested by the twofold serial microdilution method (in 96-well microtiter plates) using Mueller–Hinton broth medium (Beckton Dickinson) for bacteria or RPMI-1640 medium for Candida species, according to CLSI guidelines. The stock solution of tested agent was prepared in DMSO and diluted in sterile water. […] The final inoculum of all studied microorganisms was 10^5 CFU/ mL^−1 (colony forming units per ml). Minimal inhibitory concentrations (the lowest concentration of a tested agent that prevents visible growth of a microorganism) were read after 18 h (bacteria) or 24 h (yeasts) of incubation at 35 °C.

SMILES	LDH release (SW620 cells; SW620, 10 μM) [%]	LDH release (SW620 cells; SW620, 60 μM) [%]	early apoptosis, % of cells (SW480 cells; SW480, IC50 dose, 72 h)	apoptosis of SW480 cells (SW480 cells) [%]	Protein Intensity, % (GSTA1) ([1]; PC3, 24 h) [%]	Protein Intensity, % (GSTA1) ([1]; SW480, 24 h) [%]	Protein Intensity, % (GSTA1) ([1]; SW620, 24 h) [%]	Protein Intensity, % (GSTO1) ([2]; PC3, 24 h) [%]	Protein Intensity, % (GSTO1) ([2]; SW480, 24 h) [%]	Protein Intensity, % (GSTO1) ([2]; SW620, 24 h) [%]	Protein Intensity, % (GSTP1) ([3]; PC3, 24 h) [%]	Protein Intensity, % (GSTP1) ([3]; SW480, 24 h) [%]	Protein Intensity, % (GSTP1) ([3]; SW620, 24 h) [%]	Protein Intensity, % (PRDX4) ([4]; PC3, 24 h) [%]	Protein Intensity, % (PRDX4) ([4]; SW480, 24 h) [%]	Protein Intensity, % (PRDX4) ([4]; SW620, 24 h) [%]	Protein Intensity, % (PRDX3) ([5]; PC3, 24 h) [%]	Protein Intensity, % (PRDX3) ([5]; SW480, 24 h) [%]	Protein Intensity, % (PRDX3) ([5]; SW620, 24 h) [%]	growth inhibitory dose (Candida species) [µg/mL]	also measured
O=[N+]([O-])c1cc([N+]2=C(Nc3ccccc3Br)[S][Cu-2]23[S]C(Nc2ccccc2Br)=[N+]3c2ccc(Cl)c([N+](=O)[O-])c2)ccc1Cl [Compound 1, Copper (II) complex with 1-(2-bromophenyl)-3-(4-chloro-3-nitrophenyl)thiourea]	22	48	45.18% ± 3.9%	47	84.4	78.3	50.2	65.0	70.9	85.5	95.0	84.8	74.4	72.6	67.6	79.4	69.5	95.2	69.9		
O=[N+]([O-])c1cc([N+]2=C(Nc3cccc(Br)c3)[S][Cu-2]23[S]C(Nc2cccc(Br)c2)=[N+]3c2ccc(Cl)c([N+](=O)[O-])c2)ccc1Cl [Compound 2, Copper (II) complex with 1-(3-bromophenyl)-3-(4-chloro-3-nitrophenyl)thiourea]																				64	
O=[N+]([O-])c1cc([N+]2=C(Nc3ccc(Br)cc3)[S][Cu-2]23[S]C(Nc2ccc(Br)cc2)=[N+]3c2ccc(Cl)c([N+](=O)[O-])c2)ccc1Cl [Compound 3, Copper (II) complex with 1-(4-bromophenyl)-3-(4-chloro-3-nitrophenyl)thiourea]			≤ 40%		70.6	86.6	45.2	64.0	66.0	77.0	51.1	75.9	64.5	61.1	60.1	76.4	57.3	85.4	67.5	64	decrease in the amount of GSTA1 [1]: 54.8%
O=[N+]([O-])c1cc(NC2=[N+](c3ccc(Cl)c([N+](=O)[O-])c3)[Cu-2]3([S]2)[S]C(Nc2ccc(Cl)c([N+](=O)[O-])c2)=[N+]3c2ccc(Cl)c([N+](=O)[O-])c2)ccc1Cl [Compound 6, Copper (II) complex with 1,3-bis(4-chloro-3-nitrophenyl)thiourea]																				64	
O=[N+]([O-])c1cc([N+]2=C(Nc3ccccc3F)[S][Cu-2]23[S]C(Nc2ccccc2F)=[N+]3c2ccc(Cl)c([N+](=O)[O-])c2)ccc1Cl [Compound 7, Copper (II) complex with 1-(2-fluorophenyl)-3-(4-chloro-3-nitrophenyl)thiourea]		30.2	≤ 40%		79.2	75.6	36.4	68.6	45.1	52.5	35.8	80.9	67.3	35.7	58.3	73.0	12.4	90.4	61.2		reduction of PRDX4 intensity ([4]; SW480, IC50 concentration): 41.7%
O=[N+]([O-])c1cc([N+]2=C(Nc3ccc(I)cc3)[S][Cu-2]23[S]C(Nc2ccc(I)cc2)=[N+]3c2ccc(Cl)c([N+](=O)[O-])c2)ccc1Cl [Compound 8, Copper (II) complex with 1-(4-iodophenyl)-3-(4-chloro-3-nitrophenyl)thiourea]	23	42.4	48.9% ± 3.4%	47	73.5	91.6	54.3	31.6	52.4	65.0	64.1	83.0	57.5	30.8	78.2	93.9	24.8	96.3	95.2	64	late apoptosis, % of cells (SW480 cells; SW480, IC50 dose, 72 h): 20.7% ± 2.8%; decrease in the amount of GSTA1 [1]: 45.7%
